The record followed here is ChEMBL document CHEMBL1131268, “Preparation of biotinylated allosamidins with strong chitinase inhibitory activities” (Bioorg Med Chem Lett, 1998).

In assay [1] the test system is Chitinase (Trichoderma). Nature of the assay: Compound was evaluated for inhibitory activity against Trichoderma Chitinase in presence of allosamidin at the dose of 31 ug/mL.
Assay [2] relates to Chitinase (Trichoderma). Kind of assay: Compound was evaluated for inhibitory activity against Trichoderma Chitinase in presence of allosamidin at the dose of 125 ug/mL.
The test system of assay [3] is Chitinase (Trichoderma). Kind of assay: Compound was evaluated for inhibitory activity against Trichoderma Chitinase in presence of allosamidin at the dose of 7.8 ug/mL.
The subject of assay [4] is Chitinase (Trichoderma). Nature of the assay: Compound was evaluated for inhibitory activity against trichoderma chitinase in presence of allosamidin at the dose of 500 ug/mL.

Usually inhibition stands for the change of the read-out against control, counted positive when it falls.

The structures appear in SMILES notation.

With `CC(=O)NC(/C=N/NC(=O)CCCCCNC(=O)CCCCC1SC[C@@H]2NC(=O)N[C@H]12)C(OC(/C=N/NC(=O)CCCCCNC(=O)CCCCC1SC[C@@H]2NC(=O)N[C@H]12)CO)OC1C(CO)OC(OC2C(O)C3N=C(N(C)C)OC3C2CO)C(NC(C)=O)C1O` (some centres undefined), the inhibition with Chitinase (Trichoderma) [1] amounted to 21.9%; in the assay with Chitinase (Trichoderma) [2] it was 42.2%; with Chitinase (Trichoderma) [3], 7.8%; in the assay on Chitinase (Trichoderma) [4], 65.6%.
